Test results from ChEMBL document CHEMBL2057100, “The optimization of pyridazinone series of glucan synthase inhibitors” (Bioorg Med Chem Lett, 2012).
In brackets after ≈: the same amount, converted by molar mass. Activity calls are given as the source filed them. No cut-off for these calls is given here.

Columns and labels:
Nakaseomyces glabratus = assay: Antifungal activity against Candida glabrata C624 by broth dilution method; type: functional; conditions: read-out: MIC100
Aspergillus fumigatus [1] = assay: Antifungal activity against Aspergillus fumigatus ND158 by broth dilution method; type: functional; conditions: read-out: MEC
Beta-1,3-glucan synthase = biological target: T1, Beta-1,3-glucan synthase (Candida albicans, UniProt O13383); assay: Inhibition of 1,3-beta-D-glucan synthase in Candida albicans BWP17 membranes; type: cell membranes
T1 sequence (O13383 whole entry): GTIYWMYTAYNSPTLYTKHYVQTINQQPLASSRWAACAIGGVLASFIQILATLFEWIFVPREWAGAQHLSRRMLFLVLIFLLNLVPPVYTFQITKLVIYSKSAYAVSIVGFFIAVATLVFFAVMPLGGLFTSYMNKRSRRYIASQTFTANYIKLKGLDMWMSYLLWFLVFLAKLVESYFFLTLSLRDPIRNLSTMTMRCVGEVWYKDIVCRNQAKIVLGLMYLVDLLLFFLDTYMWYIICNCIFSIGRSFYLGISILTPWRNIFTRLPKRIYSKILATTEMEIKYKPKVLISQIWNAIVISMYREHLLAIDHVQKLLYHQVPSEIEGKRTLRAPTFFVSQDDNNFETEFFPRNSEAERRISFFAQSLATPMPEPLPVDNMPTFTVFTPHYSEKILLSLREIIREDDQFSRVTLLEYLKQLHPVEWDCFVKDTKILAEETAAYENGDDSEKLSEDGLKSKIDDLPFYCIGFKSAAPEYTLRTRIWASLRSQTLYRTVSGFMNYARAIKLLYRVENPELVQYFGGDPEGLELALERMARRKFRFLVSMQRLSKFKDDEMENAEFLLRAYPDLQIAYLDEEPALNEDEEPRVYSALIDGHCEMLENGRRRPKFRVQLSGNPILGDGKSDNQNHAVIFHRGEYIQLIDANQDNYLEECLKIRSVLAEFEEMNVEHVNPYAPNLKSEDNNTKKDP

Candida albicans [2] = assay: Antifungal activity against Candida albicans C693 by broth dilution method; type: functional; conditions: read-out: MIC100
Candida albicans [3] = assay: Antifungal activity against Candida albicans C697 infected in immune compromised mouse assessed as reduction of fungal burden in kidney at 100 mg/kg, ip; type: functional, organism-based; parameters: dose 100 mg/kg
Aspergillus fumigatus [4] = assay: Induction of morphological changes in Aspergillus fumigatus ND158 assessed as induction of truncated and highly branched hyphae; type: functional, organism-based
Candida albicans [5] = assay: Antifungal activity against Candida albicans C697 infected in normal mouse assessed as reduction of fungal burden in kidney at 100 mg/kg, ip; type: functional, organism-based; parameters: dose 100 mg/kg
[6] = AUC (0 to 6 hrs) in rat at 10 mg/kg, po; type: ADME, organism-based, Plasma; parameters: time < 6 hr, dose 10 mg/kg, route oral; conditions: plasma
[7] = Cmax in rat at 10 mg/kg, po; type: ADME, organism-based; parameters: dose 10 mg/kg, route oral; conditions: in vivo

Structure (SMILES) | MIC (Nakaseomyces glabratus) [µg/mL] | minimal effective concentration (Aspergillus fumigatus [1]) [µg/mL] | IC50 (Beta-1,3-glucan synthase) [nM] | MIC (Candida albicans [2]) [µg/mL] | Activity (Candida albicans [3]) | Activity (Aspergillus fumigatus [4]) | Activity (Candida albicans [5]) | AUC(0-t) at 6 h [6] [ng·h/mL] | Cmax [7] [ng/mL]
CC1(COc2c(N3CCN(S(=O)(=O)Cc4ccc(N)c(C(N)=O)c4)CC3)cnn(-c3cccc(Cl)c3)c2=O)CC1 | 8.34 (≈ 14.2 µM) | > 33 | 511 | > 33 |  |  |  |  | 
Cc1cc(CS(=O)(=O)N2CCN(c3cnn(-c4cccc(Cl)c4)c(=O)c3OCC3(C)CC3)CC2)ccc1N |  |  |  |  | Active | Active | Active |  | 
CN(C)c1ccc(CS(=O)(=O)N2CCN(c3cnn(-c4cccc(Cl)c4)c(=O)c3OCC3(C)CC3)CC2)cc1 | 0.06 (≈ 0.105 µM) | 16.7 | 87.4 | 0.26 (≈ 0.454 µM) |  |  |  |  | 
O=c1c(OC2CCCC2)c(N2CCN(S(=O)(=O)Cc3ccc(Cl)cc3)CC2)cnn1-c1cccc(Cl)c1 | 0.31 (≈ 0.55 µM) |  | 142 | 0.63 (≈ 1.12 µM) |  |  |  |  | 
O=c1c(OCCc2ccccn2)c(N2CCN(S(=O)(=O)Cc3ccccc3)CC2)cnn1-c1cccc(Cl)c1 | 0.39 (≈ 0.689 µM) |  | 1060 | 6.25 (≈ 11 µM) |  |  |  |  | 
CC1(COc2c(N3CCN(S(=O)(=O)Cc4ccc(N)nc4)CC3)cnn(-c3cccc(Cl)c3)c2=O)CC1 | 0.06 (≈ 0.11 µM) | 8.4 | 91.7 | 2.08 (≈ 3.82 µM) |  |  |  | 3100 | 1000
CC1(COc2c(N3CCN(S(=O)(=O)Cc4ccc(N)cc4)CC3)cnn(-c3cccc(Cl)c3)c2=O)CC1 | 0.26 (≈ 0.478 µM) | 4.2 | 110 | 1.04 (≈ 1.91 µM) |  |  |  | 8100 | 1900
O=c1c(OC2CCC(O)C2)c(N2CCN(S(=O)(=O)Cc3ccccc3)CC2)cnn1-c1cccc(Cl)c1 (stereo not given) | 0.78 (≈ 1.43 µM) |  | 1650 | 25 (≈ 45.9 µM) |  |  |  |  | 
O=c1c(OC2CCCC2)c(N2CCN(S(=O)(=O)Cc3ccncc3)CC2)cnn1-c1cc(F)cc(F)c1 | 0.2 (≈ 0.376 µM) |  | 564 | 3.1 (≈ 5.83 µM) |  |  |  | 20 | 
CC1(COc2c(N3CCN(S(=O)(=O)Cc4ccc(N)c(Cl)c4)CC3)cnn(-c3cc(F)cc(F)c3)c2=O)CC1 | < 0.02 | 0.52 | 69 | 0.13 (≈ 0.224 µM) |  |  |  | 1100 | 330
O=c1c(OC2CCCC2)c(N2CCN(S(=O)(=O)Cc3ccccc3)CC2)cnn1-c1cc(F)cc(F)c1 | 0.4 (≈ 0.754 µM) |  | 56.5 | 0.39 (≈ 0.735 µM) |  |  |  |  | 
Nc1ccc(CS(=O)(=O)N2CCN(c3cnn(-c4cccc(Cl)c4)c(=O)c3OC3CCCC3)CC2)cc1 | 0.2 (≈ 0.368 µM) |  | 91.9 | 0.78 (≈ 1.43 µM) |  |  |  |  | 
Cc1cc(CS(=O)(=O)N2CCN(c3cnn(-c4cc(F)cc(F)c4)c(=O)c3OCC3(C)CC3)CC2)ccc1N | 0.13 (≈ 0.232 µM) | 4.2 | 125 | 1.04 (≈ 1.86 µM) |  |  |  | 14500 | 3500
CC(C)c1cc(CS(=O)(=O)N2CCN(c3cnn(-c4cccc(Cl)c4)c(=O)c3OCC3(C)CC3)CC2)ccc1N | 16.7 (≈ 28.5 µM) | > 33 | 631 | > 33 |  |  |  | 2100 | 700
COc1cc(CS(=O)(=O)N2CCN(c3cnn(-c4cccc(Cl)c4)c(=O)c3OCC3(C)CC3)CC2)ccc1N | 0.06 (≈ 0.105 µM) | 2.08 | 105 | 0.52 (≈ 0.906 µM) |  |  |  | 13100 | 3300
O=c1c(OC2CCCC2)c(N2CCN(S(=O)(=O)Cc3ccccc3F)CC2)cnn1-c1cccc(Cl)c1 | 0.2 (≈ 0.366 µM) |  | 73.1 | 0.39 (≈ 0.713 µM) |  |  |  |  | 
O=c1c(OC2CCCC2)c(N2CCN(S(=O)(=O)Cc3cc(C(F)(F)F)cc(C(F)(F)F)c3)CC2)cnn1-c1cccc(Cl)c1 | > 50 |  | > 226000 | > 50 |  |  |  |  | 
CC1(COc2c(N3CCN(S(=O)(=O)Cc4cccc(N)c4)CC3)cnn(-c3cccc(Cl)c3)c2=O)CC1 | 0.13 (≈ 0.239 µM) | 1.04 | 73.5 | 0.52 (≈ 0.956 µM) |  |  |  | 5700 | 1400
O=c1c(OC2CCCC2)c(N2CCN(S(=O)(=O)Cc3cccc(F)c3)CC2)cnn1-c1cc(F)cc(F)c1 | < 0.02 |  | 72.9 | 0.1 (≈ 0.182 µM) |  |  |  |  | 
Nc1ccc(CS(=O)(=O)N2CCN(c3cnn(-c4cc(F)cc(F)c4)c(=O)c3OC3CCCC3)CC2)cc1 | 0.26 (≈ 0.477 µM) |  | 110 | 1.04 (≈ 1.91 µM) |  |  |  | 8100 | 
